PMC9395446, “First-in-human phase 1/1b study to evaluate sitravatinib in patients with advanced solid tumors” (Investigational New Drugs, 2022)

Assay: Safety in phase 1/1b study (DLTs, TRAEs, TEAEs; CTCAE v4.03)
Format: in vivo, human
Conditions: 150 mg phase 1b
Text: Safety assessments included evaluation of DLTs, AEs, physical examinations, vital sign measurements, electrocardiogram recordings and laboratory tests.
A DLT was defined as a grade ≥ 4 hematologic abnormality lasting ≥ 4 days; grade 3 thrombocytopenia with clinically significant bleeding; febrile neutropenia; clinically significant grade ≥ 3 non-hematologic AEs not related to underlying malignancy; intolerable grade 2 AEs; or toxicity resulting in an inability to deliver 80% of the dose during the first treatment cycle.
The safety population included all patients who received ≥ 1 dose of sitravatinib. […] The PK evaluable population included all patients with sufficient concentration-time data for PK parameter evaluation. The modified intent-to-treat (mITT) population included all phase 1b patients who received ≥ 1 dose of study drug.

## COCCNCc1ccc(-c2cc3nccc(Oc4ccc(NC(=O)C5(C(=O)Nc6ccc(F)cc6)CC5)cc4F)c3s2)nc1 [sitravatinib, Sitravatinib]
  ALT increased TRAE, any grade: 18 (18.2) n (%)
  ALT increased TRAE, grade ≥3: 2 (2.0) n (%)
  AST increased TEAE, any grade: 26 (26.3) n (%)
  AST increased TEAE, grade ≥3: 3 (3.0) n (%)
  AST increased TRAE, any grade: 20 (20.2) n (%)
  AST increased TRAE, grade ≥3: 2 (2.0) n (%)
  Abdominal pain TEAE, any grade: 26 (26.3) n (%)
  Abdominal pain TEAE, grade ≥3: 2 (2.0) n (%)
  Abdominal pain TRAE, any grade: 14 (14.1) n (%)
  Abdominal pain TRAE, grade ≥3: 0 n (%)
  Anemia TEAE, any grade: 23 (23.2) n (%)
  Anemia TEAE, grade ≥3: 8 (8.1) n (%)
  Any TEAE: 99 (100.0) n (%)
  Any TRAE: 92 (92.9) n (%)
  Asthenia TEAE, any grade: 9 (9.1) n (%)
  Asthenia TEAE, grade ≥3: 0 n (%)
  Back pain TEAE, any grade: 18 (18.2) n (%)
  Back pain TEAE, grade ≥3: 3 (3.0) n (%)
  Blood and lymphatic system disorders TEAE, any grade: 27 (27.3) n (%)
  Blood and lymphatic system disorders TEAE, grade ≥3: 11 (11.1) n (%)
  Blood creatinine increased TEAE, any grade: 15 (15.2) n (%)
  Blood creatinine increased TEAE, grade ≥3: 0 n (%)
  Cardiac disorders TEAE, any grade: 15 (15.2) n (%)
  Cardiac disorders TEAE, grade ≥3: 6 (6.1) n (%)
  Constipation TEAE, any grade: 40 (40.4) n (%)
  Constipation TEAE, grade ≥3: 0 n (%)
  Constipation TRAE, any grade: 9 (9.1) n (%)
  Constipation TRAE, grade ≥3: 0 n (%)
  Cough TEAE, any grade: 15 (15.2) n (%)
  Cough TEAE, grade ≥3: 0 n (%)
  Decreased appetite TEAE, any grade: 38 (38.4) n (%)
  Decreased appetite TEAE, grade ≥3: 1 (1.0) n (%)
  Decreased appetite TRAE, any grade: 27 (27.3) n (%)
  Decreased appetite TRAE, grade ≥3: 1 (1.0) n (%)
  Dehydration TEAE, any grade: 23 (23.2) n (%)
  Dehydration TEAE, grade ≥3: 4 (4.0) n (%)
  Diarrhea TEAE, any grade: 67 (67.7) n (%)
  Diarrhea TEAE, grade ≥3: 18 (18.2) n (%)
  Diarrhea TRAE, any grade: 59 (59.6) n (%)
  Diarrhea TRAE, grade ≥3: 14 (14.1) n (%)
  Dizziness TEAE, any grade: 19 (19.2) n (%)
  Dizziness TEAE, grade ≥3: 0 n (%)
  Dizziness TRAE, any grade: 12 (12.1) n (%)
  Dizziness TRAE, grade ≥3: 0 n (%)
  Dry mouth TEAE, any grade: 15 (15.2) n (%)
  Dry mouth TEAE, grade ≥3: 0 n (%)
  Dry mouth TRAE, any grade: 10 (10.1) n (%)
  Dry mouth TRAE, grade ≥3: 0 n (%)
  Dysphonia TEAE, any grade: 26 (26.3) n (%)
  Dysphonia TEAE, grade ≥3: 0 n (%)
  Dysphonia TRAE, any grade: 13 (13.1) n (%)
  Dysphonia TRAE, grade ≥3: 0 n (%)
  Dyspnea TEAE, any grade: 19 (19.2) n (%)
  Dyspnea TEAE, grade ≥3: 2 (2.0) n (%)
  Edema peripheral TEAE, any grade: 16 (16.2) n (%)
  Edema peripheral TEAE, grade ≥3: 0 n (%)
  Endocrine disorders TEAE, any grade: 27 (27.3) n (%)
  Endocrine disorders TEAE, grade ≥3: 2 (2.0) n (%)
  Fatigue TEAE, any grade: 55 (55.6) n (%)
  Fatigue TEAE, grade ≥3: 9 (9.1) n (%)
  Fatigue TRAE, any grade: 49 (49.5) n (%)
  Fatigue TRAE, grade ≥3: 7 (7.1) n (%)
  Gastrointestinal disorders TEAE, any grade: 89 (89.9) n (%)
  Gastrointestinal disorders TEAE, grade ≥3: 33 (33.3) n (%)
  General disorders and administration site conditions TEAE, any grade: 72 (72.7) n (%)
  General disorders and administration site conditions TEAE, grade ≥3: 12 (12.1) n (%)
  Headache TEAE, any grade: 18 (18.2) n (%)
  Headache TEAE, grade ≥3: 1 (1.0) n (%)
  Hypertension TEAE, any grade: 52 (52.5) n (%)
  Hypertension TEAE, grade ≥3: 29 (29.3) n (%)
  Hypertension TRAE, any grade: 46 (46.5) n (%)
  Hypertension TRAE, grade ≥3: 24 (24.2) n (%)
  Hypokalemia TEAE, any grade: 13 (13.1) n (%)
  Hypokalemia TEAE, grade ≥3: 3 (3.0) n (%)
  Hypomagnesemia TEAE, any grade: 17 (17.2) n (%)
  Hypomagnesemia TEAE, grade ≥3: 0 n (%)
  Hyponatremia TEAE, any grade: 16 (16.2) n (%)
  Hyponatremia TEAE, grade ≥3: 5 (5.1) n (%)
  Hypophosphatemia TEAE, any grade: 15 (15.2) n (%)
